Values of other authors in US20250381239A1, “METHOD FOR IMPROVING SLEEP QUALITY OR INCREASING SLEEP DURATION AND METHOD FOR RELIEVING PSYCHOLOGICAL STRESS” (TOYO SHINYAKU CO., LTD., priority 2024, published 2025).

Key:
[1] = system: mice; settings: mice subjected only to psychological stress
[2] = system: mice; settings: water immersion restraint test

SMILES	Effect on psychological stress ulcers [1]	Effect on physical stress ulcers [2]
NC(N)=Nc1nc(CSCCC(N)=NS(N)(=O)=O)cs1 [famotidine]	no effect	effective
CCN1CCCC1CNC(=O)c1cc(S(N)(=O)=O)ccc1OC (stereo not shown) [sulpiride]	effective	no effect
